In PubChem BioAssay (NCI):
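Values below derive from 48-hour exposures of cells grown in 96-well plates, with endpoints linearly interpolated between the two concentrations bracketing the appropriate inhibition level. Definition used: TGI = concentration required for complete inhibition of growth.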

What was measured:
Test in all cases: NCI-60 cell line screen, 48 h
SF-295 CNS = test system: SF-295 CNS
SK-MEL-2 melanoma = test system: SK-MEL-2 melanoma
OVCAR-5 ovarian = test system: OVCAR-5 ovarian
UACC-62 melanoma = test system: UACC-62 melanoma
IGROV1 ovarian = test system: IGROV1 ovarian
BT-549 breast = test system: BT-549 breast
EKVX NSCLC = test system: EKVX NSCLC
CCRF-CEM leukemia = test system: CCRF-CEM leukemia
HOP-92 NSCLC = test system: HOP-92 NSCLC
MOLT-4 leukemia = test system: MOLT-4 leukemia
NCI-H460 lung = test system: NCI-H460 lung
SN12C renal = test system: SN12C renal
SR leukemia = test system: SR leukemia
K-562 leukemia = test system: K-562 leukemia
MALME-3M melanoma = test system: MALME-3M melanoma
A498 renal = test system: A498 renal
MDA-MB-435 = test system: MDA-MB-435
M14 melanoma = test system: M14 melanoma
UO-31 renal = test system: UO-31 renal
SK-OV-3 ovarian = test system: SK-OV-3 ovarian
HCT-116 colon = test system: HCT-116 colon
SW-620 colon = test system: SW-620 colon
NCI-H226 lung = test system: NCI-H226 lung
OVCAR-8 ovarian = test system: OVCAR-8 ovarian
SK-MEL-28 melanoma = test system: SK-MEL-28 melanoma
HT29 colon = test system: HT29 colon
OVCAR-3 ovarian = test system: OVCAR-3 ovarian
TK-10 renal = test system: TK-10 renal
A549 NSCLC = test system: A549 NSCLC
OVCAR-4 ovarian = test system: OVCAR-4 ovarian
KM12 colon = test system: KM12 colon
ACHN renal = test system: ACHN renal
HCC-2998 colon = test system: HCC-2998 colon
MCF7 breast = test system: MCF7 breast
SF-539 CNS = test system: SF-539 CNS
UACC-257 melanoma = test system: UACC-257 melanoma
HOP-62 NSCLC = test system: HOP-62 NSCLC
MDA-MB-231 breast = test system: MDA-MB-231 breast
COLO 205 colon = test system: COLO 205 colon
RXF 393 renal = test system: RXF 393 renal
SNB-75 CNS = test system: SNB-75 CNS
CAKI-1 renal = test system: CAKI-1 renal
HL-60(TB) leukemia = test system: HL-60(TB) leukemia
SNB-19 CNS = test system: SNB-19 CNS
NCI-H23 lung = test system: NCI-H23 lung
NCI/ADR-RES ovarian = test system: NCI/ADR-RES ovarian
MDA-N = test system: MDA-N
HCT-15 colon = test system: HCT-15 colon
PC-3 prostate = test system: PC-3 prostate
U251 CNS = test system: U251 CNS
786-0 renal = test system: 786-0 renal
HS 578T breast = test system: HS 578T breast
LOX IMVI melanoma = test system: LOX IMVI melanoma
SK-MEL-5 melanoma = test system: SK-MEL-5 melanoma

SMILES: Nc1ccc2c(c1)Cc1ccccc1-2
- TGI (SF-295 CNS): > 100 µM
- TGI (SK-MEL-2 melanoma): > 100 µM
- TGI (OVCAR-5 ovarian): > 100 µM
- TGI (UACC-62 melanoma): > 100 µM
- TGI (IGROV1 ovarian): > 100 µM
- TGI (BT-549 breast): > 100 µM
- TGI (EKVX NSCLC): > 100 µM
- TGI (CCRF-CEM leukemia): > 100 µM
- TGI (HOP-92 NSCLC): > 100 µM
- TGI (MOLT-4 leukemia): > 100 µM
- TGI (NCI-H460 lung): > 100 µM
- TGI (SN12C renal): > 100 µM
- TGI (SR leukemia): > 100 µM
- TGI (K-562 leukemia): > 100 µM
- TGI (MALME-3M melanoma): > 100 µM
- TGI (A498 renal): > 100 µM
- TGI (MDA-MB-435): > 100 µM
- TGI (M14 melanoma): > 100 µM
- TGI (UO-31 renal): > 100 µM
- TGI (SK-OV-3 ovarian): > 100 µM
- TGI (HCT-116 colon): > 100 µM
- TGI (SW-620 colon): > 100 µM
- TGI (NCI-H226 lung): > 100 µM
- TGI (OVCAR-8 ovarian): > 100 µM
- TGI (SK-MEL-28 melanoma): > 100 µM
- TGI (HT29 colon): > 100 µM
- TGI (OVCAR-3 ovarian): > 100 µM
- TGI (TK-10 renal): > 100 µM
- TGI (A549 NSCLC): > 100 µM
- TGI (OVCAR-4 ovarian): > 100 µM
- TGI (KM12 colon): > 100 µM
- TGI (ACHN renal): > 100 µM
- TGI (HCC-2998 colon): > 100 µM
- TGI (MCF7 breast): > 100 µM
- TGI (SF-539 CNS): > 100 µM
- TGI (UACC-257 melanoma): > 100 µM
- TGI (HOP-62 NSCLC): > 100 µM
- TGI (MDA-MB-231 breast): > 100 µM
- TGI (COLO 205 colon): > 100 µM
- TGI (RXF 393 renal): > 100 µM
- TGI (SNB-75 CNS): 94.3 µM
- TGI (CAKI-1 renal): > 100 µM
- TGI (HL-60(TB) leukemia): > 100 µM
- TGI (SNB-19 CNS): > 100 µM
- TGI (NCI-H23 lung): > 100 µM
- TGI (NCI/ADR-RES ovarian): > 100 µM
- TGI (MDA-N): > 100 µM
- TGI (HCT-15 colon): > 100 µM
- TGI (PC-3 prostate): > 100 µM
- TGI (U251 CNS): > 100 µM
- TGI (786-0 renal): > 100 µM
- TGI (HS 578T breast): > 100 µM
- TGI (LOX IMVI melanoma): > 100 µM
- TGI (SK-MEL-5 melanoma): > 100 µM
